In ChEMBL document CHEMBL5726283, “Cycloalkyl nitrile pyrazolo pyridones as Janus kinase inhibitors” (2017):

Assays:
[1] = target: Tyrosine-protein kinase JAK1 (Homo sapiens, UniProt P23458); test: Biochemical HTRF Assay Protocol: The ability of compounds to inhibit the activity of JAK1, JAK2, JAK3, and Tyk2 was measured using a recombinant purified GST-tagged catalytic domain for each enzyme (Invitrogen JAK1 #M4290, JAK2 #M4290, JAK3 #M4290, Tyk2 #M4290) in an HTRF format biochemical assay. The reactions employed a common peptide substrate, LCB-[…]-NH2 (in-house). The basic assay protocol is as follows: First, 250 nL of diluted compounds in DMSO were dispensed into the wells of a dry 384-well Black plate (Greiner #781076) using a Labcyte Echo 555 acoustic dispenser. Subsequent reagent additions employed an Agilent Bravo. Next, 18 μL of 1.11× enzyme and 1.11× substrate in 1× assay buffer (Invitrogen kinase buffer #PV3189, 2 mM DTT, 0.05% BSA) were added to the wells and shaken and then preincubated for 30 minutes at room temperature to allow compound binding to equilibrate. After equilibration, 2 μL of 10×ATP in 1× assay buffer was added to initiate the kinase reaction and the plates were shaken and then incubated at room temperature for 120 minutes. At the end of the incubation, 20 μL of 2× stop buffer (streptavidin-Dylight 650 (Thermo #84547B/100 mL), Eu-tagged pY20 antibody (Perkin Elmer #AD0067), EDTA, HEPES, and Triton) was added to quench the reaction. Plates were shaken and centrifuged and then incubated 60 minutes at room temperature and then read on a Perkin Elmer Envision (λex=337 nm, λem=665 and 615 nm, TRF delay time=20 μs). HTRF signal=10,000*665 nm reading/615 nm reading. After normalization to untreated controls, the percent inhibition of the HTRF signal at each compound concentration was calculated.
[2] = target: Tyrosine-protein kinase JAK2 (Homo sapiens, UniProt O60674); test: Biochemical HTRF Assay Protocol: The ability of compounds to inhibit the activity of JAK1, JAK2, JAK3, and Tyk2 was measured using a recombinant purified GST-tagged catalytic domain for each enzyme (Invitrogen JAK1 #M4290, JAK2 #M4290, JAK3 #M4290, Tyk2 #M4290) in an HTRF format biochemical assay. […] Subsequent reagent additions employed an Agilent Bravo. […] After equilibration, 2 μL of 10×ATP in 1× assay buffer was added to initiate the kinase reaction and the plates were shaken and then incubated at room temperature for 120 minutes. […] After normalization to untreated controls, the percent inhibition of the HTRF signal at each compound concentration was calculated.
Tyrosine-protein kinase JAK2, sequence (O60674 whole entry, the tested form may be a part): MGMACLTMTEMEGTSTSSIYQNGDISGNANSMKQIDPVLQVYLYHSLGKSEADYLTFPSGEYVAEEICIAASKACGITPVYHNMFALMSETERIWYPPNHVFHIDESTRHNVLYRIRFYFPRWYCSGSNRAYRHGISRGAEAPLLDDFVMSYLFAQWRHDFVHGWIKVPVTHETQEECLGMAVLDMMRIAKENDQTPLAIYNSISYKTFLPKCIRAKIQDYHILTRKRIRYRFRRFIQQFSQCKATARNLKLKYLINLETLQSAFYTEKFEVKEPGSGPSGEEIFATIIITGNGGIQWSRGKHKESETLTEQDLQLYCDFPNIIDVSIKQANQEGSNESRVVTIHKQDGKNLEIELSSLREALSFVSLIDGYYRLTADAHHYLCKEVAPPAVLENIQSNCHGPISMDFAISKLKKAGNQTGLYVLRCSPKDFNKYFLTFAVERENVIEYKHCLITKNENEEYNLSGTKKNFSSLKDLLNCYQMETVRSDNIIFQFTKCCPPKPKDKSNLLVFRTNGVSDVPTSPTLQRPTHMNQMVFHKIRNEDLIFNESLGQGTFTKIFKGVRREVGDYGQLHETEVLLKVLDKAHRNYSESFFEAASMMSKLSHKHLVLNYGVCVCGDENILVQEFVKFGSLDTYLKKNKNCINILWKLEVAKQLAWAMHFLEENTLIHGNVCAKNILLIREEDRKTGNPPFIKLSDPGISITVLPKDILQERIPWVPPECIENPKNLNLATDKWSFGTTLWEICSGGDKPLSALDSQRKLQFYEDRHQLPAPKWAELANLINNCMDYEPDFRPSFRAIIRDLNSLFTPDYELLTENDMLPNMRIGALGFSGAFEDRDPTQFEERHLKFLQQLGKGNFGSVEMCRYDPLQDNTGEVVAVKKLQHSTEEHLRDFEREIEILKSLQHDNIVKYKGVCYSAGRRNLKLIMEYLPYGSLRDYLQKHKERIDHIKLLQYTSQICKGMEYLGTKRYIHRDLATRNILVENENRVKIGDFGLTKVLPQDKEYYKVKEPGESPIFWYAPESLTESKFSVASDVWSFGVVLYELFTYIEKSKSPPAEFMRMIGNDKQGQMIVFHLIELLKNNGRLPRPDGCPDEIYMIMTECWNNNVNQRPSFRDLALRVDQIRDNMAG

Tyrosine-protein kinase JAK1, sequence (P23458 whole entry, the tested form may be a part): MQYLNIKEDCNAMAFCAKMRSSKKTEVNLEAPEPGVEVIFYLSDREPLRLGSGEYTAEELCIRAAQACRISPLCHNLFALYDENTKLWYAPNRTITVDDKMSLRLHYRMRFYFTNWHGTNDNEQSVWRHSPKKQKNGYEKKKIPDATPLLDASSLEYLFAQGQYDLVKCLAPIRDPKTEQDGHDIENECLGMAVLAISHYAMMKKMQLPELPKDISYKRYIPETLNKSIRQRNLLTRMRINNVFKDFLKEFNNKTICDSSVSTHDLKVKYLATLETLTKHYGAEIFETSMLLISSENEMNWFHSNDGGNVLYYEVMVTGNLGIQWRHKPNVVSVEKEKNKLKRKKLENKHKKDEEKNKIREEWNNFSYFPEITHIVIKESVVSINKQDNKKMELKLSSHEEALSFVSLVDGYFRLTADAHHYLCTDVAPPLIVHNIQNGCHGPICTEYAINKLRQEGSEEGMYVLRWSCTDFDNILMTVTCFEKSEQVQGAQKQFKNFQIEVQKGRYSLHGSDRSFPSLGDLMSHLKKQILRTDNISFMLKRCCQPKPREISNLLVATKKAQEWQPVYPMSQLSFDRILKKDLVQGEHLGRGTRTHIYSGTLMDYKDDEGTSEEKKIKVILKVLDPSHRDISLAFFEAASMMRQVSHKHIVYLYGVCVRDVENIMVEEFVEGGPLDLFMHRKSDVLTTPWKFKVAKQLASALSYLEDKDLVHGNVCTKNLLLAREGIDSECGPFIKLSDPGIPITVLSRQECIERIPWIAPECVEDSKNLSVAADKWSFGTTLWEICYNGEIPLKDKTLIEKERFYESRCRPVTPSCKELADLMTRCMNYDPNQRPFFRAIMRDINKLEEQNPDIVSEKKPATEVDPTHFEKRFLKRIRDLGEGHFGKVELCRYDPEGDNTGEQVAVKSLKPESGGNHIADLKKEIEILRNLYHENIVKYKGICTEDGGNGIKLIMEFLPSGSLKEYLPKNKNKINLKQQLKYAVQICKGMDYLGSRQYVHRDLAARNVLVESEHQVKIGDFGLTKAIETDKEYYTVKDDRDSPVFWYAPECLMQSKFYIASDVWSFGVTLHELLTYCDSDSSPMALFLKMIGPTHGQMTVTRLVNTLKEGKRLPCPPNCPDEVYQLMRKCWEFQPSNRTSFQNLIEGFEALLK

IC50 [1] [nM] | IC50 [2] [nM] | SMILES
4.7 |  | CS(=O)(=O)c1ccc(Nc2nn([C@@H]3CCC[C@H]3C#N)c3cc[nH]c(=O)c23)cc1
0.32 | 0.37 | Cc1cc(Nc2nn([C@H]3CCCC[C@@H]3C#N)c3cc[nH]c(=O)c23)ccc1C(=O)N1CCC(F)(F)CC1
0.11 | 0.3 | CN(C)S(=O)(=O)c1ccc(Nc2nn([C@H]3CCC[C@@H]3C#N)c3cc[nH]c(=O)c23)cc1
0.48 |  | N#C[C@H]1C[C@H](O)CC[C@@H]1n1nc(Nc2ccc(C(F)(F)F)cc2)c2c(=O)[nH]ccc21
